Data on 3 compounds can be found in patent publication US20260184689A1, “PIPERIDINE-SUBSTITUTED BENZOIC ACID COMPOUND, AND PHARMACEUTICAL COMPOSITION AND USE THEREOF” (SHANGHAI YISHENG BIOPHARMACEUTICAL COMPANY LIMITED, priority 2022, published 2026).

The assay concerns Sheep Anti-Rat Fx1A Serum induced Heymann nephritis. Nature of the assay: In vivo efficacy assay of passive Heymann nephritis in rats. As to conditions: male SD rats, intragastric twice a day for 14 days, 5, 20 and 60 mpk; LNP023 60 mpk. The source says:
Experimental objective: To investigate the ability of the compounds of the present disclosure to improve renal function of Sheep Anti-Rat Fx1A Serum induced Heymann nephritis in rats, including the evaluation of reducing proteinuria level and improving renal tissue damage.
Experimental animals: Male SD rats, 7 to 10 weeks old, weighing between 200 to 300 g.
Urine was collected from rats on D-2 before administration. On D1, the first day of the experiment, animals in the control group (group 1) were administered 5 mL/kg of Sheep Non-Immune serum via a single tail vein injection; animals in the model and administration groups (groups 2 to 6) were administered 5 mL/kg of Sheep Anti-Rat Fx1A Serum via a single tail vein injection.
The rats were treated by intragastric administration twice a day with an interval of 8 hours and a volume of 10 mL/kg. On D1, 1 hour before modeling, animals in groups 1 and 2 were administered blank vehicle 20% PEG400/10% Solutol/70% water; animals in group 3 were administered LNP023 (60 mpk); animals in groups 4 to 6 were administered different concentrations of synthetic compounds (5 mpk, 20 mpk, and 60 mpk); 8 hours after the first administration, each group was administered again with the same dose and volume as the first administration. From D2 to D14, animals in each group were administered different compounds or vehicles for 14 consecutive days (including the first day) according to the dose, volume, administration method, and frequency on D1.
Urine collection: Urine samples were collected from rats on D-2 before administration, and 2 to 4 hours and 4 to 6 hours after the first administration on D4, D6, D8, D11, and D14 after administration, transferred to EP tubes and stored in a refrigerator at −80° C. to −60° C. for the detection of urine protein and creatinine in rats.
Kidney sample collection: All animals were euthanized with CO2 inhalation anesthesia on Day 15, and bilateral kidneys were collected. The left kidney was cut transversely, and the right kidney was cut longitudinally. Half of the transversely cut kidney (left side) and half of the longitudinally cut kidney (right side) were fixed in formalin (placed in the same EP tube).
4. […] Urine total protein (uTP) in rats was detected without dilution; if exceeding the upper detection limit, it was 10-fold diluted (10 μL of sample+90 μL of saline (0.9% saline)) first (Decrease mode); if still exceeding the upper detection limit after 10-fold dilution, it was 100-fold diluted (2 μL of sample+198 μL of saline (0.9% saline)) (Increase mode). Data were read by the analytical instrument HITACHI LST008AS(P). • (2) Kidney pathological scoring: The degree of drug damage to rat kidneys (paraffin sections) was analyzed by HE staining. […]
`CCO[C@H]1CCN(Nc2c(OC)cc(C)c3[nH]ccc23)[C@H](c2ccc(C(=O)O)cc2)C1` [Compound 11 of Example 75, 4-((2S,4S)-4-Ethoxy-1-((5-methoxy-7-methyl-1H-indol-4-yl)amino)piperidin-2-yl)benzoic acid]: the “performance in the kidney disease model through urine and kidney pathology analysis, compared with LNP023” value was “performed better”.

As to `CCCC1CCN(C(=O)c2c(OC)cc(C)c3[nH]ccc23)C(c2ccc(C(=O)O)cc2)C1` (single isomer, unassigned) [Compound 159A], the “performance in the kidney disease model through urine and kidney pathology analysis, compared with LNP023” value was “performed better”.

Turning to `CCCC1CCN(C(=O)c2c(OC)cc(C)c3[nH]ccc23)[C@H](c2ccc(C(=O)O)cc2)C1` (mixture of isomers) [Final product of Example 158, 4-((2S)-1-(5-Methoxy-7-methyl-1H-indole-4-carbonyl)-4-propylpiperidin-2-yl)benzoic acid], the “performance in the kidney disease model through urine and kidney pathology analysis, compared with LNP023” value is recorded as “performed better”.
